In ChEMBL document CHEMBL1156754, “Human P2Y(14) receptor agonists: truncation of the hexose moiety of uridine-5'-diphosphoglucose and its replacement with alkyl and aryl groups” (J Med Chem, 2010) one finds EC50, Activity and Ratio EC50 data, which are given here for 28 compounds.

Activity calls are given as the source filed them. The rule behind the calls is not given here. A value given as a limit tells only on which side of the number the result lay.

Test [1] has as its target T1, P2Y purinoceptor 6 (Homo sapiens, UniProt Q15077). Put plainly: Agonist activity at human P2Y6 receptor expressed in human 1321N1 cells coexpressing phospholipase C-activating Gq protein assessed as [3H]inositol phosphate production. The format is functional, cell-based.
In another test the target is T2, P2Y purinoceptor 14 (Homo sapiens, UniProt Q15391).
T2 sequence (Q15391 whole entry): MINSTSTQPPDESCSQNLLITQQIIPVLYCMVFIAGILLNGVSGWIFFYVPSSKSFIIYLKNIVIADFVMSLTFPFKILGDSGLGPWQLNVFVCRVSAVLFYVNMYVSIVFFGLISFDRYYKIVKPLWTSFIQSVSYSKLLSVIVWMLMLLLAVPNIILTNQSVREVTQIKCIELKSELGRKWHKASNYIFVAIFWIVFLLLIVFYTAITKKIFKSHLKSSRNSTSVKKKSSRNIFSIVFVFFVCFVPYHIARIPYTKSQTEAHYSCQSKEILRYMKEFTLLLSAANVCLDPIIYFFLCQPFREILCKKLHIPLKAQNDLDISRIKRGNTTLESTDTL
Nature of the test: Agonist activity at human P2Y14 receptor expressed in HEK293 cells coexpressing phospholipase C-activating Gi protein cells assessed as inhibition of forskolin induced [3H]cAMP production. The format is functional, cell-based.

In test [2] the target is T1, P2Y purinoceptor 6. Nature of the test: Agonist activity at human P2Y6 receptor expressed in human 1321N1 cells coexpressing phospholipase C-activating Gq protein assessed as [3H]inositol phosphate production at 10 uM. The format is functional, cell-based.
The target of test [3] is T3, P2Y purinoceptor 14 (Homo sapiens) (UniProt Q15391).
T3 sequence (whole entry): T2 sequence (Q15391 whole entry)
Put plainly: Agonist activity at human P2Y14 receptor expressed in HEK293 cells coexpressing phospholipase C-activating Gi protein cells assessed as inhibition of forskolin induced [3H]cAMP production at 10 uM. The format is functional, cell-based.

The species named for a further test is Homo sapiens. Nature of the test: Selectivity, ratio of EC50 for human P2Y6 receptor to EC50 for human P2Y14 receptor.

T1 sequence (Q15077 whole entry): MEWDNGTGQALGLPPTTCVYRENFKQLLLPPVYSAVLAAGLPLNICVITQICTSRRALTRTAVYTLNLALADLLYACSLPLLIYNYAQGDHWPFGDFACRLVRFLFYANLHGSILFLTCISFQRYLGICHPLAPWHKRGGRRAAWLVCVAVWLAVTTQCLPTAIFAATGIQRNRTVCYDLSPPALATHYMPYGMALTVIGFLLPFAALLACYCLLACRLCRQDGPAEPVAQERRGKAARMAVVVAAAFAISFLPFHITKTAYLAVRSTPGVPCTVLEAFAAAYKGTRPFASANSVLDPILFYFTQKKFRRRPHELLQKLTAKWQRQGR

As to `O=c1ccn([C@@H]2O[C@H](COP(=O)(O)OP(=O)(O)Oc3cccc(Cl)c3)[C@@H](O)[C@H]2O)c(=O)[nH]1`, the EC50 came to 7.37 µM at P2Y purinoceptor 6 [1] (read-out: EC50) and 1.8 µM on P2Y purinoceptor 14 (read-out: EC50).
Take `O=c1[nH]c(=S)ccn1[C@@H]1O[C@H](COP(=O)(O)OP(=O)(O)O)[C@@H](O)[C@H]1O`: the EC50 on P2Y purinoceptor 6 [1] (read-out: EC50) amounted to 2.36 µM; at P2Y purinoceptor 14 (read-out: EC50) it was 0.32 µM.
On to `O=c1ccn([C@@H]2O[C@H](COP(=O)(O)C(F)(F)P(=O)(O)O)[C@@H](O)[C@H]2O)c(=O)[nH]1`, for which the 50% effective concentration (EC50) result on P2Y purinoceptor 6 [1] (1321-n1) is “Not Active”; on P2Y purinoceptor 14 (read-out: EC50) it was 0.063 µM.
For `C#CCCOP(=O)(O)OP(=O)(O)OC[C@H]1O[C@@H](n2ccc(=O)[nH]c2=S)[C@H](O)[C@@H]1O`, the EC50 on P2Y purinoceptor 14 (read-out: EC50) was 0.011 µM; on P2Y purinoceptor 6 [2], > 10 µM.
As to `O=c1[nH]c(=O)n([C@@H]2O[C@H](COP(=O)(O)C(F)(F)P(=O)(O)O)[C@@H](O)[C@H]2O)cc1I`, the values for the EC50 on P2Y purinoceptor 6 [1] (read-out: EC50) and on P2Y purinoceptor 14 (read-out: EC50) were 0.127 µM and 0.142 µM, respectively.
The matching figures for `CO/N=c1/ccn([C@@H]2O[C@H](COP(=O)(O)OP(=O)(O)O)[C@@H](O)[C@H]2O)c(=O)[nH]1`: 0.07 µM and 3.32 µM.
For `O=c1[nH]c(=S)ccn1[C@@H]1O[C@H](COP(=O)(O)OP(=O)(O)O[C@H]2O[C@H](CO)[C@@H](O)[C@H](O)[C@H]2O)[C@@H](O)[C@H]1O`, the EC50 is 0.011 µM at P2Y purinoceptor 14 (read-out: EC50) and > 10 µM on P2Y purinoceptor 6 [2].
Take `O=c1ccn([C@@H]2O[C@H](COP(=O)(O)OP(=O)(O)Oc3ccc([N+](=O)[O-])cc3)[C@@H](O)[C@H]2O)c(=O)[nH]1`: the results for the EC50 on P2Y purinoceptor 6 [1] (read-out: EC50) and at P2Y purinoceptor 14 (read-out: EC50) were 2.76 µM and 1.49 µM, respectively.
With `O=c1ccn([C@H]2[C@H](O)[C@H](O)[C@@]3(COP(=O)(O)OP(=O)(O)O)C[C@H]23)c(=O)[nH]1`, the outcome (in test [3]; at P2Y purinoceptor 6 [2]) was inactive.
For `CCOP(=O)(O)OP(=O)(O)OC[C@H]1O[C@@H](n2ccc(=O)[nH]c2=S)[C@H](O)[C@@H]1O`, the Ratio EC50 in the test listed under Homo sapiens is > 250. The EC50 was 0.039 µM on P2Y purinoceptor 14 (read-out: EC50) and > 10 µM on P2Y purinoceptor 6 [2].
`CCN(CC)CC.COP(=O)(O)OP(=O)(O)OC[C@H]1O[C@@H](n2ccc(=S)[nH]c2=O)[C@H](O)[C@@H]1O`: the results for the EC50 on P2Y purinoceptor 6 [1] (read-out: EC50) and on P2Y purinoceptor 14 (hek293) were 10.4 µM and “Not Active”, respectively.
As to `O=c1ccn([C@@H]2O[C@H](COP(=O)(O)CP(=O)(O)O)[C@@H](O)[C@H]2O)c(=O)[nH]1`, the Ratio EC50 in the test listed under Homo sapiens came out at 31. Further, the EC50 on P2Y purinoceptor 6 [1] (read-out: EC50) amounted to 0.339 µM; on P2Y purinoceptor 14 (read-out: EC50) it was 0.011 µM.
For `CCCOP(=O)(O)OP(=O)(O)OC[C@H]1O[C@@H](n2ccc(=O)[nH]c2=S)[C@H](O)[C@@H]1O`, the Ratio EC50 in the test filed under Homo sapiens turned out to be 230. Besides, the EC50 at P2Y purinoceptor 6 [1] (read-out: EC50) worked out at 9.1 µM; at P2Y purinoceptor 14 (read-out: EC50), 0.04 µM.
Take `C#CCCOP(=O)(O)OP(=O)(O)OC[C@H]1O[C@@H](n2ccc(=O)[nH]c2=O)[C@H](O)[C@@H]1O`: the figures for the EC50 on P2Y purinoceptor 6 [1] (read-out: EC50) and on P2Y purinoceptor 14 (read-out: EC50) were 1.52 µM and 0.48 µM, respectively.
As for `O=c1ccn([C@@]23C[C@H]2[C@H](COP(=O)(O)OP(=O)(O)O)[C@@H](O)[C@H]3O)c(=O)[nH]1`, the EC50 at P2Y purinoceptor 6 [1] (read-out: EC50) was determined as 0.042 µM. In addition, the result in test [3] was inactive.
On to `N#CCCOP(=O)(O)OP(=O)(O)OC[C@H]1O[C@@H](n2ccc(=O)[nH]c2=O)[C@H](O)[C@@H]1O`, for which the EC50 on P2Y purinoceptor 14 (read-out: EC50) is 7.46 µM; on P2Y purinoceptor 6 [2], > 10 µM.
With `O=c1ccn([C@@H]2O[C@H](COP(=O)(O)OP(=O)(O)O)[C@@H](O)[C@H]2O)c(=O)[nH]1` [URIDINE_DIPHOSPHATE], on P2Y purinoceptor 6 [1] (read-out: EC50), the EC50 was found to be 0.53 µM.
For the compound `O=c1ccn([C@@H]2O[C@H](COP(=O)(O)OP(=O)(O)OC3CCCCC3)[C@@H](O)[C@H]2O)c(=O)[nH]1`, the EC50 at P2Y purinoceptor 14 (read-out: EC50) is 5.16 µM; on P2Y purinoceptor 6 [2] it was > 10 µM.
For the compound `COP(=O)(O)OP(=O)(O)OC[C@H]1O[C@@H](n2ccc(=O)[nH]c2=O)[C@H](O)[C@@H]1O`, the results for the EC50 at P2Y purinoceptor 14 (read-out: EC50) and on P2Y purinoceptor 6 [2] were 2.73 µM and > 10 µM, respectively.
As to `O=c1ccn([C@@H]2O[C@H](COP(=O)(O)OP(=O)(O)OC(CO)CO)[C@@H](O)[C@H]2O)c(=O)[nH]1`, the Ratio EC50 in the test listed under Homo sapiens worked out at 59. Moreover, the EC50 on P2Y purinoceptor 14 (read-out: EC50) was 0.167 µM; at P2Y purinoceptor 6 [2], > 10 µM.
Consider `COc1ccc(OP(=O)(O)OP(=O)(O)OC[C@H]2O[C@@H](n3ccc(=O)[nH]c3=O)[C@H](O)[C@@H]2O)cc1`, for which the EC50 was 1.9 µM on P2Y purinoceptor 14 (read-out: EC50) and > 10 µM at P2Y purinoceptor 6 [2].
In the case of `CC(C)(C)OP(=O)(O)OP(=O)(O)OC[C@H]1O[C@@H](n2ccc(=O)[nH]c2=S)[C@H](O)[C@@H]1O`, the Ratio EC50 in the test listed under Homo sapiens is 64. Also, the figures for the EC50 on P2Y purinoceptor 6 [1] (read-out: EC50) and at P2Y purinoceptor 14 (read-out: EC50) were 2.04 µM and 0.032 µM, respectively.
For `O=c1ccn([C@@H]2O[C@H](COP(=O)(O)OP(=O)(O)OCC(O)CO)[C@@H](O)[C@H]2O)c(=O)[nH]1` (some centres not stated), the EC50 on P2Y purinoceptor 14 (read-out: EC50) is 1.6 µM; at P2Y purinoceptor 6 [2] it was > 10 µM.
In the case of `O=c1ccn([C@@H]2O[C@H](COP(=O)(O)OP(=O)(O)Oc3ccccc3)[C@@H](O)[C@H]2O)c(=O)[nH]1`, the EC50 on P2Y purinoceptor 6 [1] (read-out: EC50) was found to be 7.4 µM; on P2Y purinoceptor 14 (read-out: EC50) it was 0.768 µM.
Take `O=c1ccn([C@@H]2O[C@H](COP(=O)(O)CP(=O)(O)O)[C@@H](O)[C@H]2O)c(=S)[nH]1`: the Ratio EC50 in the test listed under Homo sapiens is 2160. Moreover, the EC50 was determined as 1.99 µM on P2Y purinoceptor 6 [1] (read-out: EC50) and 0.00092 µM on P2Y purinoceptor 14 (read-out: EC50).
Regarding `CC(C)(C)OP(=O)(O)OP(=O)(O)OC[C@H]1O[C@@H](n2ccc(=O)[nH]c2=O)[C@H](O)[C@@H]1O`, in the test filed under Homo sapiens, the Ratio EC50 came to 43. Besides, at P2Y purinoceptor 14 (read-out: EC50), the EC50 came out at 0.252 µM.
Take `O=c1ccn([C@@H]2O[C@H](COP(=O)(O)OP(=O)(O)O)[C@@H](O)[C@H]2O)c(=S)[nH]1`: in the test filed under Homo sapiens, the Ratio EC50 is 230. The EC50 at P2Y purinoceptor 6 [1] (read-out: EC50) stood at 0.447 µM; at P2Y purinoceptor 14 (read-out: EC50), 0.00192 µM.
With `COP(=O)(O)OP(=O)(O)OC[C@H]1O[C@@H](n2ccc(=O)[nH]c2=S)[C@H](O)[C@@H]1O`, the EC50 at P2Y purinoceptor 14 (read-out: EC50) was 0.056 µM; at P2Y purinoceptor 6 [2] it was > 10 µM.
